Test results published in patent publication US9828350B2, “5,6-dihydro-2H-[1,4]oxazin-3-yl-amine derivatives useful as inhibitors of beta-secretase (BACE)” (Janssen Pharmaceutica NV, priority 2010, dated 2017).

What was measured:
[1] = molecular target: recombinant BACE1 protein (Homo sapiens, UniProt P56817); assay: Biochemical FRET based assay; settings: recombinant BACE1 1 μg/ml, 120 minutes at room temperature, pH 5.0; for IC50: read-out: Biochemical FRET based assay pIC50 (converted)
Summary of the method: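 Proteolysis was read as the rise in donor fluorescence (320 nm excitation, 405 nm emission) from T0 to T120, expressed in RFU. The reaction ran 120 minutes at room temperature at pH 5.0 in citrate buffer with 4% DMSO, using […] quenched Swedish APP peptide and 1 μg/ml BACE1.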

Abeta total = assay: Cellular αLisa assay in SKNBE2 cells, Abeta total; assay type: cell-based, human; settings: incubated for 18 hours; for IC50: Homo sapiens, SKNBE2, 18 h, read-out: Cellular αLisa assay in SKNBE2 cells Abetatotal pIC50 (converted)
Summary of the method: (§1)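 Secreted Abeta levels were measured by sandwich αLisa, pairing biotin-AbN/25 donor beads with Ab4G8 acceptor beads for total Abeta or cAb42/26 for Abeta 1-42, read at 615 nm after 650 nm excitation following 1 hour. Cells were SKNBE2 expressing wild-type hAPP695, exposed to compound for 18 hours.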

Abeta 1-42 = assay: Cellular αLisa assay in SKNBE2 cells, Abeta 1-42; assay type: cell-based, human; settings: incubated for 18 hours; for IC50: Homo sapiens, SKNBE2, 18 h, read-out: Cellular αLisa assay in SKNBE2 cells Abeta 42 pIC50 (converted)
Summary of the method: as §1

Aβ42 = assay: Demonstration of in vivo efficacy, brain Aβ42 lowering (ELISA); settings: mouse brain, 30 mpk
From the text: (§2) To determine whether acute administration of an Aβ42 peptide lowering agent would reduce Aβ peptide levels in vivo, non-transgenic rodents, e.g. mice or rats were used. Animals treated with the Aβ peptide lowering agent were examined and compared to those untreated or treated with vehicle and brain levels of soluble Aβ42 and total Aβ were quantitated by standard techniques, for example, using ELISA.
(§3) A typical protocol for measuring Aβ42 lowering in vivo is shown but it is only one of many variations that could be used to optimize the levels of detectable Aβ. For example, Aβ peptide lowering compounds were formulated in 20% hydroxypropyl 3 cyclodextrin. The Aβ peptide lowering agents were administered as a single oral dose (p.o.) or a single subcutaneous dose (s.c.) to overnight fasted animals. After a certain time, usually 2 or 4 h (as indicated in Table 19), the animals were sacrificed and Aβ42 levels were analysed.
(§4) Blood was collected by decapitation and exsanguinations in EDTA-treated collection tubes. Blood was centrifuged at 1900 g for 10 minutes (min) at 4° C. and the plasma recovered and flash frozen for later analysis. The brain was removed from the cranium and hindbrain. The cerebellum was removed and the left and right hemisphere were separated. The left hemisphere was stored at −18° C. for quantitative analysis of test compound levels. The right hemisphere was rinsed with phosphate-buffered saline (PBS) buffer and immediately frozen on dry ice and stored at −80° C. until homogenization for biochemical assays.
(§5) Mouse brains from non-transgenic animals were resuspended in 8 volumes of 0.4% DEA (diethylamine)/50 mM NaCl containing protease inhibitors (Roche-11873580001 or 04693159001) per gram of tissue, e.g. for 0.158 g brain, add 1.264 ml of 0.4% DEA. All samples were homogenized in the FastPrep-24 system (MP Biomedicals) using lysing matrix D (MPBio #6913-100) at 6 m/s for 20 seconds. Homogenates were centrifuged at 221.300×g for 50 min. The resulting high speed supernatants were then transferred to fresh eppendorf tubes. Nine parts of supernatant were neutralized with 1 part 0.5 M Tris-HCl pH 6.8 and used to quantify Aβtotal and Aβ42.
(§6) To quantify the amount of Aβtotal and Aβ42 in the soluble fraction of the brain homogenates, Enzyme-Linked-Immunosorbent-Assays were used. Briefly, the standards (a dilution of synthetic Aβ1-40 and Aβ1-42, Bachem) were prepared in 1.5 ml Eppendorf tube in Ultraculture, with final concentrations ranging from 10000 to 0.3 pg/ml. The samples and standards were co-incubated with HRPO-labelled N-terminal antibody for Aβ42 detection and with the biotinylated mid-domain antibody 4G8 for Aβtotal detection. […] The plate was allowed to incubate overnight at 4° C. in order to allow formation of the antibody-amyloid complex. Following this incubation and subsequent wash steps the ELISA for Aβ42 quantification was finished by addition of Quanta Blu fluorogenic peroxidase substrate according to the manufacturer's instructions (Pierce Corp., Rockford, Ill.). A reading was performed after 10 to 15 min (excitation 320 nm/emission 420 nm).

Aβtotal = assay: Demonstration of in vivo efficacy, brain Aβtotal lowering (ELISA); settings: mouse brain, 30 mpk
From the text: as §2, §3, §4, §5, §6
For Aβtotal detection, a Streptavidine-Peroxidase-Conjugate was added, followed 60 min later by an additional wash step and addition of Quanta Blu fluorogenic peroxidase substrate according to the manufacturer's instructions (Pierce Corp., Rockford, Ill.). A reading was performed after 10 to 15 min (excitation 320 nm/emission 420 nm).

P-gp = molecular target: T1, P-gp (Homo sapiens, UniProt P08183); assay: Transepithelial transport of test compounds through LLC-MDR1 monolayers; assay type: in vitro ADME; settings: for Papp A→B at 120 min, 1 μM: read-out: A to B (Apparent Permeability, Papp); for Papp B→A at 120 min, 1 μM: read-out: B to A (Apparent Permeability, Papp)
T1 construct: expressed in transfected cells; host or cells: LLC-PK1 cells stably transduced with MDR1 (LLC-MDR1)
T1 sequence (P08183 whole entry): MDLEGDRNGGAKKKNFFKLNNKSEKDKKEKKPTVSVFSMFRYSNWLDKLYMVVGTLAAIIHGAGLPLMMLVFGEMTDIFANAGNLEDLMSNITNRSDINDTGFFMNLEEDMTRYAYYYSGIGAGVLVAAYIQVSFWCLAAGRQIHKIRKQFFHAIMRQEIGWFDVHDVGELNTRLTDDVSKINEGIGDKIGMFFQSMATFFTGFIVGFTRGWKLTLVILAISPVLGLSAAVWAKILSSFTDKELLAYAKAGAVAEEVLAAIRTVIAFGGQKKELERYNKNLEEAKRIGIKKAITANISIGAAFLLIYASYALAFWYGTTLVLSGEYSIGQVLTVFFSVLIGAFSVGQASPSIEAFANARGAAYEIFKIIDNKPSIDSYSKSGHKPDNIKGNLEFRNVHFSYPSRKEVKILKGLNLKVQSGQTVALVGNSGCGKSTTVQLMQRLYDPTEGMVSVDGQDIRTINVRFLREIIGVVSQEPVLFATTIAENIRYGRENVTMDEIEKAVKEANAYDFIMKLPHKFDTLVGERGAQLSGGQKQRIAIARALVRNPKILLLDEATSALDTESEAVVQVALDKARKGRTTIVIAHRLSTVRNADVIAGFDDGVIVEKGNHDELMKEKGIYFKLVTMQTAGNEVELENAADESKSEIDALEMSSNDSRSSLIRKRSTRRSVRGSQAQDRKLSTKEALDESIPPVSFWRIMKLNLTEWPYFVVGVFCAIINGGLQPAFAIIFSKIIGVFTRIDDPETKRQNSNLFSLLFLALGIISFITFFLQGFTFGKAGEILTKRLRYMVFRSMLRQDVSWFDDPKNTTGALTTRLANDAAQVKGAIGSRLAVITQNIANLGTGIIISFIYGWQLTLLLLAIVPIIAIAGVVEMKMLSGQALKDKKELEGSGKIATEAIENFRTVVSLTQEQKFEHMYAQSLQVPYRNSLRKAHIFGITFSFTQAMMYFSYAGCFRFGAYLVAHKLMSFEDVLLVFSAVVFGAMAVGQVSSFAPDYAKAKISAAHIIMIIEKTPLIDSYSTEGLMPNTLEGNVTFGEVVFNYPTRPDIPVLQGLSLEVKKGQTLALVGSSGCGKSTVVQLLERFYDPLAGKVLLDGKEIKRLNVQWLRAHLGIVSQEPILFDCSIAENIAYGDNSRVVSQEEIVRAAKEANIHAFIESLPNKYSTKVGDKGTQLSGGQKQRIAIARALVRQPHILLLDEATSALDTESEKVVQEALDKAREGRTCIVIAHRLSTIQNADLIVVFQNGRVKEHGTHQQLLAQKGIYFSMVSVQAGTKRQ
Protocol: Brief Assay Description for the Measurement of Transepithelial Transport of Test Compounds Through LLC-MDR1 Monolayers
The purpose of this assay was to assess both the in vitro passive permeability of test compounds and their ability to be transported substrates of P-gp using LLC-PK1 cells stably transduced with MDR1 in a trans-well system. The positive control for transport was ^3H-digoxin (30 nM) and the positive control inhibitor was GF120918 (5 μM). The marker compound for low permeability was ^14C-Mannitol (1 μM). The test compound concentration was 1 μM.
The integrity of the cellular monolayer was assessed in each incubation well through the inclusion of the fluorescent, low permeability marker compound, Fluorescein.
In detail, LLC-MDR1 cells were seeded on 24-well cell culture inserts (Millicell®-PCF, 0.4 μm, 13 mm diameter, 0.7 cm^2) at 400,000 cells/cm^2. Cell culture medium consisted of Medium 199 supplemented with 10% Foetal Bovine Serum (FBS) and 100 U/ml Penicillin/streptomycin and was replaced the day after seeding and the day before the experiment. The transport experiment was performed 5 days after seeding. On the day of the experiment, solutions of the test compounds were applied to the apical or basolateral side of the monolayers to assess transport in the A to B and B to A directions, respectively. The medium used in the assay was (OPTI-MEM (1×) (GIBCO) with 1 w/v % Bovine Serum Albumin. Inserts were incubated at 37° C. in a humidified incubator containing 5% CO2. Samples from the acceptor and donor compartments were collected after an incubation time of 120 min, to assess the permeability and to allow estimation of the test compound recovery during the experiment, respectively. Transport experiments were performed in triplicate. Absolute test compound concentrations were measured using LC-MS/MS and quantified via a calibration curve.

Sequence of recombinant BACE1 protein (P56817 46-501): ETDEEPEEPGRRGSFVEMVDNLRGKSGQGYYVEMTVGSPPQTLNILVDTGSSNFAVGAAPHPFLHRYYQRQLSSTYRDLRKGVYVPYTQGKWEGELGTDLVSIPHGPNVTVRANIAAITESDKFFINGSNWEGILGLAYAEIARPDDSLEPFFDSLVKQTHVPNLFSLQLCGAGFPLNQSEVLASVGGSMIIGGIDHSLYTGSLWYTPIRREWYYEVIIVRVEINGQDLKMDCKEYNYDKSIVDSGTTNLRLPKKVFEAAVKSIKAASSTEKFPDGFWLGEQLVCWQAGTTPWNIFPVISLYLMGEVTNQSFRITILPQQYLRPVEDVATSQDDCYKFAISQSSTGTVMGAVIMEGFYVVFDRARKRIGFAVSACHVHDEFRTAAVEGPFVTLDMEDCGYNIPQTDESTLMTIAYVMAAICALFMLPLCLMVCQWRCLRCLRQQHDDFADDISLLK

| IC50 [1] [nM] | IC50 (Abeta total) [nM] | IC50 (Abeta 1-42) [nM] | melting point [°C] | Papp A→B at 120 min, 1 μM (P-gp; pig, LLC-PK1) [×10⁻⁶ cm/s] | Papp B→A at 120 min, 1 μM (P-gp; pig, LLC-PK1) [×10⁻⁶ cm/s] | SMILES | Aβ42 (% Ctrl)_Mean (Aβ42; s.c., 4 h) [% Ctrl] | Aβtotal (% Ctrl)_Mean (Aβtotal; s.c., 4 h) [% Ctrl] | Aβ42 (% Ctrl)_Mean (Aβ42; p.o., 4 h) [% Ctrl] | Aβtotal (% Ctrl)_Mean (Aβtotal; p.o., 4 h) [% Ctrl] | further results |
| --- | --- | --- | --- | --- | --- | --- | --- | --- | --- | --- | --- |
| 3470 | 8510 | > 10000 | 193.3 |  |  | CC1(c2cccc(NC(=O)c3ccc(Cl)cn3)c2)COC(F)(C(F)(F)F)C(N)=N1 (racemic) [Compound 9, rac-N-{3-[5-amino-6-fluoro-3-methyl-6-(trifluoromethyl)-3,6-dihydro-2H-1,4-oxazin-3-yl]phenyl}-5-chloropyridine-2-carboxamide] | 87 | 101 |  |  |  |
| 36.3 |  |  | 94.6 |  |  | CC1(c2cc(NC(=O)c3ncc(Cl)cc3Cl)ccc2F)N=C(N)COC1F (single isomer, unassigned) [Compound 126] | 27 | 32 | 26 | 31 | Cellular αLisa assay in SKNBE2 cells Abetatotal pIC50 (Abeta total): 8.09; Cellular αLisa assay in SKNBE2 cells Abeta 42 pIC50 (Abeta 1-42): 8.06 |
| 14.8 | 17 | 16.6 | 196.12 |  |  | N#Cc1ccc(C(=O)Nc2cccc([C@@]3(C4CC4)N=C(N)CO[C@@]3(F)C(F)(F)F)c2)nc1 [Compound 199, (2S,3R)—N-{3-[5-amino-3-cyclopropyl-2-fluoro-2-(trifluoromethyl)-3,6-dihydro-2H-1,4-oxazin-3-yl]phenyl}-5-cyanopyridine-2-carboxamide] |  |  |  |  | Aβ42 (% Ctrl)_Mean (Aβ42; s.c., 2 h): 64 % Ctrl; Aβtotal (% Ctrl)_Mean (Aβtotal; s.c., 2 h): 45 % Ctrl |
| 2040 | 178 | 214 | 79.5 |  |  | COc1cncc(-c2cccc(C3(C)COCC(N)=N3)c2)c1 (single isomer, unassigned) [Compound 8] | 92 | 98 |  |  |  |
| 34.7 | 7.59 | 7.59 | 214.23 |  |  | C[C@]1(c2cc(NC(=O)c3ncc(Cl)cc3Cl)ccc2F)N=C(N)CO[C@H]1C(F)(F)F [Compound 167] |  |  |  |  | Aβ42 (% Ctrl)_Mean (Aβ42; p.o., 2 h): 95 % Ctrl; Aβtotal (% Ctrl)_Mean (Aβtotal; p.o., 2 h): 78 % Ctrl |
|  |  |  |  | 8.9 | 17.7 | CC1(c2cc(NC(=O)c3ccc(Cl)cn3)ccc2F)N=C(N)COC1F (single isomer, unassigned) [Compound 134] |  |  | 27 | 35 | Cellular αLisa assay in SKNBE2 cells Abetatotal pIC50 (Abeta total): 8.42; Cellular αLisa assay in SKNBE2 cells Abeta 42 pIC50 (Abeta 1-42): 8.39 |
| 50.1 | 12.3 | 12.6 |  | 13.7 | 13.6 | COc1cnc(C(=O)Nc2ccc(F)c([C@@]3(C)N=C(N)CO[C@H]3C(F)(F)F)c2)cn1 [Compound 166, (2R,3R)—N-{3-[5-amino-3-methyl-2-(trifluoromethyl)-3,6-dihydro-2H-1,4-oxazin-3-yl]-4-fluorophenyl}-5-methoxypyrazine-2-carboxamide] |  |  | 50 | 43 |  |
|  |  |  |  |  |  | CC1(c2cc(-c3cncnc3)c(F)cc2F)COCC(N)=N1 (single isomer, unassigned) [Compound 55] | 88 | 87 |  |  | Biochemical FRET based assay pIC50 [1]: 5.55; Cellular αLisa assay in SKNBE2 cells Abetatotal pIC50 (Abeta total): 6.99; Cellular αLisa assay in SKNBE2 cells Abeta 42 pIC50 (Abeta 1-42): 6.89; A to B (Apparent Permeability, Papp) (P-gp; LLC-MDR1 monolayers, 1 μM test compound, 120 minutes, apical to basolateral, absence of GF120918): 9.5 ×10⁻⁶ cm/s; B to A (Apparent Permeability, Papp) (P-gp; LLC-MDR1 monolayers, 1 μM test compound, 120 minutes, basolateral to apical): 34.4 ×10⁻⁶ cm/s; BA/AB (P-gp; LLC-MDR1 monolayers, ratio of B to A and A to B permeation rates): 3.6 |
| 631 | 245 | 251 |  | 10.5 | 23.9 | C[C@@]1(c2cc(-c3cncnc3)c(F)cc2F)N=C(N)CO[C@H]1F (single isomer, unassigned) [Compound 82, (S*,S*)-5-(2,4-difluoro-5-pyrimidin-5-ylphenyl)-6-fluoro-5-methyl-5,6-dihydro-2H-1,4-oxazin-3-amine] |  |  |  |  | Aβ42 (% Ctrl)_Mean (Aβ42; s.c., 2 h): 57 % Ctrl; Aβtotal (% Ctrl)_Mean (Aβtotal; s.c., 2 h): 44 % Ctrl; efflux ratio at 120 min, 1 μM (P-gp; pig, LLC-PK1, LLC-MDR1 monolayers, ratio of B to A and A to B permeation rates, read-out: BA/AB): 2.3 |
| 56.2 | 6.76 | 6.92 |  | 10.5 | 19 | C[C@]1(c2cc(NC(=O)c3ccc(C#N)cn3)ccc2F)N=C(N)CO[C@H]1C(F)(F)F [Compound 169] |  |  | 38 | 39 |  |
|  | 631 |  |  | 12 | 12 | COc1cnc(C(=O)Nc2ccc(F)c([C@@]3(C4CC4)N=C(N)CO[C@@H]3F)c2)cn1 [Compound 216] |  |  | 45 | 39 |  |
